According to patent US12139499B2, “Heteroaryl compounds for treating Huntington's disease” (PTC THERAPEUTICS, INC., priority 2018, dated 2024):

What follows are molecules tested on Endogenous Huntingtin Protein (assay: Endogenous Huntingtin Protein Assay (ELISA-based MSD electrochemiluminescence)). Conditions: Table 1.
Type: cell-based
How it was run: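 Sandwich MSD electrochemiluminescence immunoassay. Capture used MW1 (expanded polyglutamine) or MAB2166 antibody coated at 1 μg/mL overnight at 4 °C. Samples were bound overnight at 4 °C, then a rabbit monoclonal detection antibody and SULFO-TAG anti-rabbit, each at 0.25 μg/mL, were applied for 1 h at room temperature.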

Compound | IC50
COc1cc(-c2cc(F)c3nc(C4CCNCC4)sc3c2)nn2cc(C)nc12 [Compound 151, 6-[4-fluoro-2-(piperidin-4-yl)-1,3-benzothiazol-6-yl]-8-methoxy-2-methylimidazo[1,2-b]pyridazine] | ≤ 100 nM
Cc1cn2cc(-c3cc(F)c4nc(C5CCNCC5)sc4c3)cc(F)c2n1 [Compound 152, 4-fluoro-6-(8-fluoro-2-methylimidazo[1,2-a]pyridin-6-yl)-2-(piperidin-4-yl)-1,3-benzothiazole] | ≤ 100 nM
Cn1cc2cc(-c3cc(Cl)c4nc(C5=CCNCC5)sc4c3)cc(F)c2n1 [Compound 153, 4-chloro-6-(7-fluoro-2-methyl-2H-indazol-5-yl)-2-(1,2,3,6-tetrahydropyridin-4-yl)-1,3-benzothiazole] | 1000 to 3000 nM
Cn1cc2cc(-c3cc(Cl)c4nc(C5=CCNCC5)sc4c3)cc(C#N)c2n1 [Compound 154, 5-[4-chloro-2-(1,2,3,6-tetrahydropyridin-4-yl)-1,3-benzothiazol-6-yl]-2-methyl-2H-indazole-7-carbonitrile] | 1000 to 3000 nM
CN(c1nc2ccc(-c3ccc4nn(C)cc4c3)cc2s1)C1CCNC(C)(C)C1 (stereo not shown) [Compound 155, N-(2,2-dimethylpiperidin-4-yl)-N-methyl-6-(2-methyl-2H-indazol-5-yl)-1,3-benzothiazol-2-amine] | 100 to 500 nM
Cc1cn2cc(-c3ccc4nc(C5CCNCC5)sc4c3)cnc2n1 [Compound 156, 2-methyl-6-[2-(piperidin-4-yl)-1,3-benzothiazol-6-yl]imidazo[1,2-a]pyrimidine] | 1000 to 3000 nM
Cc1cn2cc(-c3cc4sc(N(C)C5CC(C)(C)NC(C)(C)C5)nc4nn3)cc(F)c2n1 [Compound 157, 3-(8-fluoro-2-methylimidazo[1,2-a]pyridin-6-yl)-N-methyl-N-(2,2,6,6-tetramethylpiperidin-4-yl)[1,3]thiazolo[4,5-c]pyridazin-6-amine] | ≤ 100 nM
CN(c1nc2nnc(-c3cc(C#N)c4nn(C)cc4c3)cc2s1)C1CC(C)(C)NC(C)(C)C1 [Compound 158, 2-methyl-5-{6-[methyl(2,2,6,6-tetramethylpiperidin-4-yl)amino][1,3]thiazolo[4,5-c]pyridazin-3-yl}-2H-indazole-7-carbonitrile] | 100 to 500 nM
CN(c1nc2ncc(-c3ccc(-c4cn[nH]c4)c(F)c3F)nc2s1)C1CC(C)(C)NC(C)(C)C1 [Compound 161, 6-[2,3-difluoro-4-(1H-pyrazol-4-yl)phenyl]-N-methyl-N-(2,2,6,6-tetramethylpiperidin-4-yl)[1,3]thiazolo[4,5-b]pyrazin-2-amine] | 1000 to 3000 nM
Cc1cn2nc(-c3cnc4nc(N(C)C5CC(C)(C)NC(C)(C)C5)sc4n3)cc(C)c2n1 [Compound 162, 6-(2,8-dimethylimidazo[1,2-b]pyridazin-6-yl)-N-methyl-N-(2,2,6,6-tetramethylpiperidin-4-yl)[1,3]thiazolo[4,5-b]pyrazin-2-amine] | ≤ 100 nM
Cc1cn2cc(-c3cnc4nc(N(C)C5CC(C)(C)NC(C)(C)C5)sc4n3)cc(C#N)c2n1 [Compound 163, 2-methyl-6-{2-[methyl(2,2,6,6-tetramethylpiperidin-4-yl)amino][1,3]thiazolo[4,5-b]pyrazin-6-yl}imidazo[1,2-a]pyridine-8-carbonitrile] | ≤ 100 nM
Cc1cn2nc(-c3cc(F)c4nc(N(C)C5CCN[C@@H](C)C5)sc4c3)ccc2n1 (stereo partly drawn) [Compound 164, 4-fluoro-N-methyl-6-(2-methylimidazo[1,2-b]pyridazin-6-yl)-N-[(2S)-2-methylpiperidin-4-yl]-1,3-benzothiazol-2-amine] | ≤ 100 nM
Cc1cn2nc(-c3cc(F)c4nc(N(C)C5CCN[C@@H](C)C5)sc4c3)cc(C)c2n1 (stereo partly drawn) [Compound 165, 6-(2,8-dimethylimidazo[1,2-b]pyridazin-6-yl)-4-fluoro-N-methyl-N-[(2S)-2-methylpiperidin-4-yl]-1,3-benzothiazol-2-amine] | ≤ 100 nM
Cc1cn2nc(-c3cc(F)c4nc(C5CCN6CCCC6C5)sc4c3)ccc2n1 (stereo not shown) [Compound 166, 6-[4-fluoro-2-(octahydroindolizin-7-yl)-1,3-benzothiazol-6-yl]-2-methylimidazo[1,2-b]pyridazine] | ≤ 100 nM
CNc1cc(-c2cc(F)c3nc(C4CCNCC4)sc3c2)nn2cc(C)nc12 [Compound 167, 6-[4-fluoro-2-(piperidin-4-yl)-1,3-benzothiazol-6-yl]-N,2-dimethylimidazo[1,2-b]pyridazin-8-amine] | ≤ 100 nM
Cc1cn2nc(-c3cc(F)c4nc(C5CCNCC5)sc4c3)cc(N(C)C)c2n1 [Compound 168, 6-[4-fluoro-2-(piperidin-4-yl)-1,3-benzothiazol-6-yl]-N,N,2-trimethylimidazo[1,2-b]pyridazin-8-amine] | ≤ 100 nM
Cc1cn2cc(-c3ccc4nc(C5CCNCC5)sc4c3)ncc2n1 [Compound 169, 2-methyl-6-[2-(piperidin-4-yl)-1,3-benzothiazol-6-yl]imidazo[1,2-a]pyrazine] | 100 to 500 nM

Compound | IC50
Cc1cn2cc(-c3ncc4nc(N(C)C5CC(C)(C)NC(C)(C)C5)sc4n3)cc(C#N)c2n1 [Compound 170, 2-methyl-6-{2-[methyl(2,2,6,6-tetramethylpiperidin-4-yl)amino][1,3]thiazolo[5,4-d]pyrimidin-5-yl}imidazo[1,2-a]pyridine-8-carbonitrile] | ≤ 100 nM
Cc1cn2cc(-c3ncc4nc(N(C)C5CC(C)(C)NC(C)(C)C5)sc4n3)cc(F)c2n1 [Compound 171, 5-(8-fluoro-2-methylimidazo[1,2-a]pyridin-6-yl)-N-methyl-N-(2,2,6,6-tetramethylpiperidin-4-yl)[1,3]thiazolo[5,4-d]pyrimidin-2-amine] | ≤ 100 nM
Cn1cc2cc(-c3cc(C#N)c4nc(C5=CCNCC5)sc4c3)cc(C#N)c2n1 [Compound 172, 6-(7-cyano-2-methyl-2H-indazol-5-yl)-2-(1,2,3,6-tetrahydropyridin-4-yl)-1,3-benzothiazole-4-carbonitrile] | 1000 to 3000 nM
Cc1cn2cc(-c3cnc4nc(N5CCNCC5)sc4n3)cc(C#N)c2n1 [Compound 173, 2-methyl-6-[2-(piperazin-1-yl)[1,3]thiazolo[4,5-b]pyrazin-6-yl]imidazo[1,2-a]pyridine-8-carbonitrile] | 1000 to 3000 nM
Cc1cn2cc(-c3cnc4nc(N5CCNCC5)sc4n3)cc(F)c2n1 [Compound 174, 6-(8-fluoro-2-methylimidazo[1,2-a]pyridin-6-yl)-2-(piperazin-1-yl)[1,3]thiazolo[4,5-b]pyrazine] | 1000 to 3000 nM
Cc1cc(-c2ccc3nc(N(C)C4CC(C)NC(C)C4)sc3c2)cc2cn(C)nc12 (stereo not shown) [Compound 175, 6-(2,7-dimethyl-2H-indazol-5-yl)-N-(2,6-dimethylpiperidin-4-yl)-N-methyl-1,3-benzothiazol-2-amine] | ≤ 100 nM
CC1CC(N(C)c2nc3ccc(-c4ccc5nn(C)cc5c4)cc3s2)CC(C)N1 (stereo not shown) [Compound 176, N-(2,6-dimethylpiperidin-4-yl)-N-methyl-6-(2-methyl-2H-indazol-5-yl)-1,3-benzothiazol-2-amine] | ≤ 100 nM
Cc1cn2cc(-c3ccc4nc(N(C)C5CC(C)(C)NC(C)(C)C5)sc4n3)cc(F)c2n1 [Compound 177, 5-(8-fluoro-2-methylimidazo[1,2-a]pyridin-6-yl)-N-methyl-N-(2,2,6,6-tetramethylpiperidin-4-yl)[1,3]thiazolo[5,4-b]pyridin-2-amine] | ≤ 100 nM
Cc1cn2cc(-c3ccc4nc(N(C)C5CC(C)(C)NC(C)(C)C5)sc4n3)cc(C#N)c2n1 [Compound 178, 2-methyl-6-{2-[methyl(2,2,6,6-tetramethylpiperidin-4-yl)amino][1,3]thiazolo[5,4-b]pyridin-5-yl}imidazo[1,2-a]pyridine-8-carbonitrile] | ≤ 100 nM
Cc1cn2cc(-c3cc4sc(N(C)C5CC(C)(C)NC(C)(C)C5)nc4cn3)cc(C#N)c2n1 [Compound 179, 2-methyl-6-{2-[methyl(2,2,6,6-tetramethylpiperidin-4-yl)amino][1,3]thiazolo[4,5-c]pyridin-6-yl}imidazo[1,2-a]pyridine-8-carbonitrile] | ≤ 100 nM
Cc1cn2cc(-c3cnc4nc(OC5CC(C)(C)NC(C)(C)C5)sc4n3)cc(F)c2n1 [Compound 180, 6-(8-fluoro-2-methylimidazo[1,2-a]pyridin-6-yl)-2-[(2,2,6,6-tetramethylpiperidin-4-yl)oxy][1,3]thiazolo[4,5-b]pyrazine] | 100 to 500 nM
Cc1cn2cc(-c3cnc4nc(OC5CC(C)(C)NC(C)(C)C5)sc4n3)cc(C#N)c2n1 [Compound 181, 2-methyl-6-{2-[(2,2,6,6-tetramethylpiperidin-4-yl)oxy][1,3]thiazolo[4,5-b]pyrazin-6-yl}imidazo[1,2-a]pyridine-8-carbonitrile] | 100 to 500 nM
Cc1cn2nc(-c3cnc4nc(N5CCNCC5)sc4n3)ccc2n1 [Compound 182, 6-(2-methylimidazo[1,2-b]pyridazin-6-yl)-2-(piperazin-1-yl)[1,3]thiazolo[4,5-b]pyrazine] | 500 to 1000 nM
Cc1cn2cc(-c3ncc4nc(N(C)C5CC(C)(C)NC(C)(C)C5)sc4n3)cc(C)c2n1 [Compound 183, 5-(2,8-dimethylimidazo[1,2-a]pyridin-6-yl)-N-methyl-N-(2,2,6,6-tetramethylpiperidin-4-yl)[1,3]thiazolo[5,4-d]pyrimidin-2-amine] | ≤ 100 nM
Cc1cn2nc(-c3ncc4nc(N(C)C5CC(C)(C)NC(C)(C)C5)sc4n3)cc(C)c2n1 [Compound 184, 5-(2,8-dimethylimidazo[1,2-b]pyridazin-6-yl)-N-methyl-N-(2,2,6,6-tetramethylpiperidin-4-yl)[1,3]thiazolo[5,4-d]pyrimidin-2-amine] | 1000 to 3000 nM
Cc1cn2nc(-c3cc(F)c4nc(N(C)C5CCNCC5)sc4c3)ccc2n1 [Compound 185, 4-fluoro-N-methyl-6-(2-methylimidazo[1,2-b]pyridazin-6-yl)-N-(piperidin-4-yl)-1,3-benzothiazol-2-amine] | ≤ 100 nM
Cc1cn2nc(-c3cc(F)c4nc(N(C)C5CCNCC5)sc4c3)cc(C)c2n1 [Compound 186, 6-(2,8-dimethylimidazo[1,2-b]pyridazin-6-yl)-4-fluoro-N-methyl-N-(piperidin-4-yl)-1,3-benzothiazol-2-amine] | ≤ 100 nM
